Results taken from PubChem BioAssay AID248 (DTP/NCI, 2004).
Values joined by “and” are separate entries in the source; they are usually repeats but may differ in a detail not shown here. Equal values may be shown once. Inconclusive results and toxic doses are left out.

System: L1210 leukemia ip in BDF1 mice, survival T/C
Experiment: NCI In Vivo Anticancer Drug Screen. Data for tumor model L1210 Leukemia (intraperitoneal) in B6D2F1 (BDF1) mice
Conditions: endpoint: mean survival time, higher = longer survival
Procedure, shortened: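 Ratio derived from survival: compound-dosed mice over vehicle-dosed mice, all bearing a transplantable tumor.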

[1] = dose: 25.0 mg/kg/injection, schedule: Q01DX001 (ip), vehicle: Klucel (hydroxypropylcellulose) (HPC)
[2] = dose: 50.0 mg/kg/injection, schedule: Q01DX001 (ip), vehicle: Klucel (hydroxypropylcellulose) (HPC)
[3] = dose: 100.0 mg/kg/injection, schedule: Q01DX001 (ip), vehicle: Klucel (hydroxypropylcellulose) (HPC)
[4] = dose: 12.5 mg/kg/injection, schedule: Q04DX002 (ip), vehicle: saline with Tween-80
[5] = dose: 50.0 mg/kg/injection, schedule: Q04DX002 (ip), vehicle: saline with Tween-80
[6] = dose: 100.0 mg/kg/injection, schedule: Q01DX001 (ip), vehicle: carboxymethylcellulose (CMC)
[7] = dose: 200.0 mg/kg/injection, schedule: Q01DX001 (ip), vehicle: carboxymethylcellulose (CMC)
[8] = dose: 100.0 mg/kg/injection, schedule: Q04DX003 (ip), vehicle: Klucel (hydroxypropylcellulose) (HPC)
[9] = dose: 200.0 mg/kg/injection, schedule: Q04DX003 (ip), vehicle: Klucel (hydroxypropylcellulose) (HPC)
[10] = dose: 400.0 mg/kg/injection, schedule: Q04DX003 (ip), vehicle: Klucel (hydroxypropylcellulose) (HPC)
[11] = dose: 100.0 mg/kg/injection, schedule: Q04DX003 (ip), vehicle: saline
[12] = dose: 200.0 mg/kg/injection, schedule: Q04DX003 (ip), vehicle: saline
[13] = dose: 100.0 mg/kg/injection, schedule: Q01DX009 (ip), vehicle: saline with Tween-80
[14] = dose: 200.0 mg/kg/injection, schedule: Q01DX009 (ip), vehicle: saline with Tween-80
[15] = dose: 100.0 mg/kg/injection, schedule: Q01DX001 (ip), vehicle: saline
[16] = dose: 200.0 mg/kg/injection, schedule: Q01DX001 (ip), vehicle: saline

SMILES: CN1CCN(C(=S)Nc2ccccc2)CC1
- T/C [1]: 98 % of control
- T/C [2]: 106 % of control
- T/C [3]: 97 % of control and 107 % of control

SMILES: O=c1c2ccccc2ncn1CCCBr
- T/C (dose: 75.0 mg/kg/injection, schedule: Q01DX009 (ip), vehicle: saline): 95 % of control
- T/C (dose: 150.0 mg/kg/injection, schedule: Q01DX009 (ip), vehicle: saline): 103 % of control
- T/C (dose: 300.0 mg/kg/injection, schedule: Q01DX009 (ip), vehicle: saline): 95 % of control

SMILES: CCCC/C(C)=N/Nc1ccc([N+](=O)[O-])cc1[N+](=O)[O-]
- T/C [4]: 98 % of control
- T/C (dose: 25.0 mg/kg/injection, schedule: Q04DX002 (ip), vehicle: saline with Tween-80): 106 % of control
- T/C [5]: 98 % of control

SMILES: O=[N+]([O-])c1cncn1CCN1CCOCC1
- T/C [6]: 88 % of control
- T/C [7]: 88 % of control
- T/C (dose: 400.0 mg/kg/injection, schedule: Q01DX001 (ip), vehicle: carboxymethylcellulose (CMC)): 94 % of control

SMILES: NC(=O)N/N=C1\CC2CC1C1C=CCC21 (stereo not given)
- T/C (dose: 50.0 mg/kg/injection, schedule: Q01DX001 (ip), vehicle: carboxymethylcellulose (CMC)): 102 % of control
- T/C [6]: 93 % of control
- T/C [7]: 102 % of control

SMILES: CC1(C)N=C(N)N=C(N)N1c1ccc(OCCCc2ccccc2)c(N)c1
- T/C (dose: 25.0 mg/kg/injection, schedule: Q04DX003 (ip), vehicle: saline with Tween-80): 100 % of control
- T/C (dose: 50.0 mg/kg/injection, schedule: Q04DX003 (ip), vehicle: saline with Tween-80): 96 % of control

SMILES: COC(=O)C1CC2(CNc3ccccc32)CN1C (stereo not given)
- T/C [8]: 90 % of control
- T/C [9]: 89 % of control
- T/C [10]: 89 % of control

SMILES: CCN(CC)CC(C)OC(=O)c1ccc(N)cc1 (stereo not given)
- T/C [11]: 103 % of control
- T/C [12]: 101 % of control

SMILES: Cn1c2ccccc2c2cc3cnccc3cc21
- T/C (dose: 37.5 mg/kg/injection, schedule: Q04DX003 (ip), vehicle: Klucel (hydroxypropylcellulose) (HPC)): 102 % of control
- T/C (dose: 75.0 mg/kg/injection, schedule: Q04DX003 (ip), vehicle: Klucel (hydroxypropylcellulose) (HPC)): 105 % of control
- T/C (dose: 150.0 mg/kg/injection, schedule: Q04DX003 (ip), vehicle: Klucel (hydroxypropylcellulose) (HPC)): 106 % of control
- T/C (dose: 300.0 mg/kg/injection, schedule: Q04DX003 (ip), vehicle: Klucel (hydroxypropylcellulose) (HPC)): 111 % of control

SMILES: COc1ccc(-c2nnc(-c3ccc(OC)c(Cl)c3)nn2)cc1Cl
- T/C [13]: 86 % of control
- T/C [14]: 86 % of control

SMILES: Cc1c(Cl)cccc1NC(=O)Oc1ccc(Cl)cc1Cl
- T/C (dose: 50.0 mg/kg/injection, schedule: Q01DX009 (ip), vehicle: saline with Tween-80): 94 % of control
- T/C [13]: 103 % of control
- T/C [14]: 106 % of control

SMILES: C#CCOCC1CN(c2ccccc2)C(=O)O1 (stereo not given)
- T/C (dose: 100.0 mg/kg/injection, schedule: Q01DX009 (ip), vehicle: Klucel (hydroxypropylcellulose) (HPC)): 100 % of control
- T/C [8]: 101 % of control
- T/C (dose: 200.0 mg/kg/injection, schedule: Q01DX009 (ip), vehicle: Klucel (hydroxypropylcellulose) (HPC)): 100 % of control
- T/C [9]: 92 % of control
- T/C (dose: 400.0 mg/kg/injection, schedule: Q01DX009 (ip), vehicle: Klucel (hydroxypropylcellulose) (HPC)): 91 % of control
- T/C [10]: 103 % of control

SMILES: Cc1cccc(C(C#N)c2ccc(N)cc2)c1 (stereo not given)
- T/C (dose: 50.0 mg/kg/injection, schedule: Q01DX001 (ip), vehicle: saline): 101 % of control
- T/C [15]: 101 % of control
- T/C [16]: 101 % of control

SMILES: Oc1ccc(O)c2[nH]c(-c3ccccc3)cc12
- T/C (dose: 6.25 mg/kg/injection, schedule: Q04DX002 (ip), vehicle: saline with Tween-80): 97 % of control
- T/C [4]: 97 % of control

SMILES: CC1CN=C(c2ccc(NC(=O)c3ccc(C(=O)Nc4ccc(C5=NCC(C)CN5)cc4)nc3)cc2)NC1 (stereo not given)
- T/C (dose: 2.0 mg/kg/injection, schedule: Q01DX001 (ip), vehicle: water): 97 % of control and 101 % of control
- T/C (dose: 4.0 mg/kg/injection, schedule: Q01DX001 (ip), vehicle: water): 101 % of control and 106 % of control
- T/C (dose: 4.0 mg/kg/injection, schedule: Q01DX015 (ip), vehicle: water): 250 % of control and 288 % of control
- T/C (dose: 6.0 mg/kg/injection, schedule: Q01DX001 (ip), vehicle: water): 106 % of control and 115 % of control

SMILES: NC(N)=N/N=C/c1cccc(Cl)c1
- T/C (dose: 3.75 mg/kg/injection, schedule: Q01DX Z (ip), vehicle: saline): 92 % of control
- T/C (dose: 7.5 mg/kg/injection, schedule: Q01DX Z (ip), vehicle: saline): 94 % of control
- T/C (dose: 15.0 mg/kg/injection, schedule: Q01DX Z (ip), vehicle: saline): 94 % of control
- T/C (dose: 15.0 mg/kg/injection, schedule: Q01DX Z (oral), vehicle: saline): 98 % of control
- T/C (dose: 30.0 mg/kg/injection, schedule: Q01DX Z (ip), vehicle: saline): 100 % of control
- T/C (dose: 30.0 mg/kg/injection, schedule: Q01DX Z (oral), vehicle: saline): 98 % of control
- T/C (dose: 60.0 mg/kg/injection, schedule: Q01DX Z (oral), vehicle: saline): 98 % of control
- T/C (dose: 120.0 mg/kg/injection, schedule: Q01DX Z (oral), vehicle: saline): 102 % of control

SMILES: CCC1c2ccc3cc(OC)ccc3c2CC1CC(=O)O (stereo not given)
- T/C [11]: 92 % of control
- T/C [12]: 92 % of control
- T/C (dose: 400.0 mg/kg/injection, schedule: Q04DX003 (ip), vehicle: saline): 86 % of control

SMILES: O=C(OCC1OCOC(COC(=O)c2ccccc2)C(OC(=O)c2ccccc2)C1OC(=O)c1ccccc1)c1ccccc1 (stereo not given)
- T/C [5]: 88 % of control

SMILES: CCCCNS(=O)(=O)c1ccc(Cl)c([N+](=O)[O-])c1
- T/C (dose: 12.5 mg/kg/injection, schedule: Q04DX003 (ip), vehicle: Klucel (hydroxypropylcellulose) (HPC)): 95 % of control
- T/C (dose: 25.0 mg/kg/injection, schedule: Q04DX003 (ip), vehicle: Klucel (hydroxypropylcellulose) (HPC)): 103 % of control
- T/C (dose: 50.0 mg/kg/injection, schedule: Q04DX003 (ip), vehicle: Klucel (hydroxypropylcellulose) (HPC)): 100 % of control
- T/C (dose: 100.0 mg/kg/injection, schedule: Q04DX003 (ip), vehicle: gum acacia): 103 % of control
- T/C (dose: 200.0 mg/kg/injection, schedule: Q04DX003 (ip), vehicle: gum acacia): 105 % of control

SMILES: O=C1C=C(O/C=C/C(C(F)(F)F)C(F)(F)F)C(=O)c2ccccc21
- T/C (dose: 6.25 mg/kg/injection, schedule: Q01DX001 (ip), vehicle: Klucel (hydroxypropylcellulose) (HPC)): 100 % of control
- T/C (dose: 6.25 mg/kg/injection, schedule: Q01DX009 (ip), vehicle: Klucel (hydroxypropylcellulose) (HPC)): 91 % of control
- T/C (dose: 12.5 mg/kg/injection, schedule: Q01DX001 (ip), vehicle: Klucel (hydroxypropylcellulose) (HPC)): 101 % of control
- T/C (dose: 12.5 mg/kg/injection, schedule: Q01DX009 (ip), vehicle: Klucel (hydroxypropylcellulose) (HPC)): 95 % of control
- T/C [1]: 103 % of control
- T/C [2]: 101 % of control
- T/C (dose: 75.0 mg/kg/injection, schedule: Q01DX001 (ip), vehicle: Klucel (hydroxypropylcellulose) (HPC)): 96 % of control

SMILES: Cc1cc(=O)[nH]c(Nc2ccccc2)n1
- T/C [13]: 90 % of control
- T/C [14]: 93 % of control
- T/C (dose: 400.0 mg/kg/injection, schedule: Q01DX009 (ip), vehicle: saline with Tween-80): 90 % of control

SMILES: O=C(Nc1cccc(Cl)c1Cl)Oc1cccc2ccccc12
- T/C (dose: 100.0 mg/kg/injection, schedule: Q04DX002 (ip), vehicle: Klucel (hydroxypropylcellulose) (HPC)): 101 % of control
- T/C (dose: 200.0 mg/kg/injection, schedule: Q04DX002 (ip), vehicle: Klucel (hydroxypropylcellulose) (HPC)): 108 % of control
- T/C (dose: 400.0 mg/kg/injection, schedule: Q04DX002 (ip), vehicle: Klucel (hydroxypropylcellulose) (HPC)): 114 % of control

SMILES: C=CO
- T/C [15]: 103 % of control
- T/C [16]: 95 % of control
- T/C (dose: 400.0 mg/kg/injection, schedule: Q01DX001 (ip), vehicle: saline): 89 % of control

SMILES: C=CC/C=C/C
- T/C [3]: 93 % of control
- T/C (dose: 200.0 mg/kg/injection, schedule: Q01DX001 (ip), vehicle: Klucel (hydroxypropylcellulose) (HPC)): 109 % of control
- T/C (dose: 400.0 mg/kg/injection, schedule: Q01DX001 (ip), vehicle: Klucel (hydroxypropylcellulose) (HPC)): 100 % of control

SMILES: COC(=O)/C=C/C(=O)NC(N)=O
- T/C (dose: 6.25 mg/kg/injection, schedule: Q01DX009 (ip), vehicle: saline): 93 % of control
- T/C (dose: 12.5 mg/kg/injection, schedule: Q01DX009 (ip), vehicle: saline): 98 % of control
- T/C (dose: 25.0 mg/kg/injection, schedule: Q01DX009 (ip), vehicle: saline): 101 % of control
